The results in this text go back to US10966970B2, “Fused tricyclic compounds and uses thereof in medicine” (SUNSHINE LAKE PHARMA CO., LTD., priority 2017, dated 2021).

Experiment [1] relates to HBV DNA replication. The experiment can be described thus: Inhibition of HBV virus replication (HBV DNA in supernatant, qPCR). The format is cell-based. The settings on record: Hepatitis B virus, 240 h; HepG2.2.15 cells, 10 days treatment, supernatant HBV DNA by qPCR. The protocol:
(§1) The chromosomes of HepG2.2.15 cells (SELLS, PNAS, 1987 and SELLS, JV, 1988) integrate the complete HBV genome and stably express viral RNA and viral proteins. HepG2.2.15 cells are able to secrete mature HBV particles and HBsAg into the culture medium. Viral particle DNA and HBsAg secreted by HepG 2.2.15 cells can be quantified by qPCR and ELISA methods, and the effects of the compound on virus replication and HBsAg secretion are thus examined.
HepG 2.2.15 Cells (8,000 per well) were seeded into 96-well cell culture plates in duplicate and cultured for 3 days until the cells grew to fill in pores. Cells were treated with 4-fold serial diluted compound solution for 10 days, and the compound solution was exchanged once every other day, the final concentration of DMSO in all wells was 0.5% and DMSO was used as a drug-free control. On the eleventh day, the supernatant was collected for quantitative detection of HBV DNA.
qPCR method was used for detection of viral genomic DNA, HBV primers were as follows: HBV-For-202, […]; HBV-Rev-315, […].
Using the SY BR Premix Ex Taq II—Takara DRR081S kit, 1 ≈L of the cell culture supernatant was used as a template, a plasmid containing the HBV genome was used for plotting a standard curve, and virus copy number was calculated using the standard curve. Concentration-virus copy number was treated with Graphpad Prism 5 software and the IC50 of inhibition of virus replication by compounds was calculated by a four-parameter nonlinear regression model.

Experiment [2] deals with HBsAg secretion. Put plainly: Inhibition of HBsAg secretion (ELISA). The format is cell-based, HBV. The settings on record: Hepatitis B virus, HepG2.2.15, 240 h, read-out: HbsAg IC50 (nM). Here is the method: as §1
HepG 2.2.15 Cells (8,000 per well) were seeded into 96-well cell culture plates in duplicate and cultured for 3 days until the cells grew to fill in pores. Cells were treated with 4-fold serial diluted compound solution for 10 days, and the compound solution was exchanged once every other day, the final concentration of DMSO in all wells was 0.5% and DMSO was used as a drug-free control. On the eleventh day, the supernatant was collected for quantitative detection of HBsAg.
The level of HBsAg secreted by the cells after treatment with the compound was detected by ELISA. The method used a hepatitis B surface antigen diagnostic kit (Shanghai K ehua Biotechnology Co., Ltd. 510910113). 25 ≈L of the supernatant to be examined (diluted to 75 ≈L in PBS) was added to each well of the ELISA plate, and a kit-positive control and a negative control were set. The ELISA plates were blocked with mounting paper and incubated at 37 eC for 60 minutes. The ELISA plate was took out, and the mounting paper was removed, then 50 ≈L of enzyme conjugate was added into each well. After shaking for 10 seconds, the ELISA plates were blocked with mounting paper and incubated at 37 eC for 30 minutes. The ELISA plate was took out, and the mounting paper was removed, and the ELISA plate was repeated washing five times: liquid in the wells was discard each time; the wells was filled with washing solution, then stood for 60 seconds and spined dry; and liquid residue on blotting paper was patted dry. After the washing was completed, to all wells was immediately added a mixture of freshly prepared developer A and developer B: 100 ≈L per well. After shaking for 10 seconds on oscillator, the ELISA plates were blocked with mounting paper and incubated at 37 eC for 30 minutes. To all wells were added 50 ≈L of stop solution. Data were read at a wavelength of 450 nm on an Envision plate reader. Concentration-HBsAg OD450 value was treated with Graphpad Prism 5 software and the IC50 of inhibition of HBsAg secretion by compounds was calculated by a four-parameter nonlinear regression model.

Regarding `CC(C)C1Cc2cc(OCC3CCOCC3)c(-c3nccs3)cc2-c2cc(=O)c(C(=O)O)cn21` (stereo not shown) [Example 21, 6-isopropyl-2-oxo-9-((tetrahydro-2H-pyran-4-yl)methoxy)-10-(thiazol-2-yl)-6,7-dihydro-2H-pyrido[2,1-a]isoquinoline-3-carboxylic Acid], the half-inhibitory concentration (IC50) in experiment [1] was determined as 0.3 nM; in experiment [2], 0.35 nM.

As to `COCCCOc1cc2c(cc1-c1cccs1)-c1cc(=O)c(C(=O)O)cn1C(C(C)C)C2` (stereo not shown) [Example 15, 6-isopropyl-9-(3-methoxypropoxy)-2-oxo-10-(thiophen-2-yl)-6,7-dihydro-2H-pyrido[2,1-a]isoquinoline-3-carboxylic Acid], the 50% inhibitory concentration (IC50) amounted to 0.39 nM in experiment [1] and 0.77 nM in experiment [2].

As for `CNC(=O)c1cc2c(cc1OCCCOC)CC(C(C)C)n1cc(C(=O)O)c(=O)cc1-2` (stereo not shown) [Example 5, 6-isopropyl-9-(3-methoxypropoxy)-10-(methylcarbamoyl)-2-oxo-6,7-dihydro-2H-pyrido[2,1-a]isoquinoline-3-carboxylic Acid], the IC50 in experiment [1] worked out at 10.6 nM; in experiment [2], 9.88 nM.

In the case of `COc1cc2c(cc1-c1ncc(Br)s1)CC(C(C)C)n1cc(C(=O)O)c(=O)cc1-2` (stereo not shown) [Example 80, 9-(5-bromothiazol-2-yl)-6-isopropyl-10-methoxy-2-oxo-6,7-dihydro-2H-pyrido[2,1-a]isoquioline-3-carboxlic Acid], the results for the IC50 in experiment [1] and in experiment [2] were 2.57 nM and 2.16 nM, respectively.

For `COCCCOc1cc2c(cc1C(=O)OCC(F)F)-c1cc(=O)c(C(=O)O)cn1C(C(C)C)C2` (stereo not shown) [Example 35, 10-((2,2-difluoroethoxy)carbonyl)-6-isopropyl-9-(3-methoxypropoxy)-2-oxo-6,7-dihydro-2H-pyrido[2,1-a]isoquinoline-3-carboxylic Acid], the concentration for half-maximal inhibition (IC50) in experiment [1] amounted to 7.59 nM; in experiment [2] it was 9.25 nM.

In the case of `COc1cc2c(cc1-c1ccc(Cl)s1)CC(C(C)C)n1cc(C(=O)O)c(=O)cc1-2` (stereo not shown) [Example 79, 9-(5-chlorothiophen-2-yl)-6-isopropyl-10-methoxy-2-oxo-6,7-dihydro-2H-pyrido[2,1-a]isoquinoline-3-carboxylic Acid], the IC50 amounted to 2.01 nM in experiment [1] and 2.95 nM in experiment [2].

For `CC(C)C1Cc2cc(N3CCCC3)c(-c3nccs3)cc2-c2cc(=O)c(C(=O)O)cn21` (stereo not shown) [Example 69, 6-isopropyl-2-oxo-9-(pyrrolidin-1-yl)-10-(thiazol-2-yl)-6,7-dihydro-2H-pyrido[2,1-a]isoquinoline-3-carboxylic Acid], the IC50 in experiment [1] turned out to be 10.2 nM; in experiment [2], 15.2 nM.

`COc1cc2c(cc1-c1ccco1)CC(C(C)C)n1cc(C(=O)O)c(=O)cc1-2` (stereo not shown) [Example 16, 9-(furan-2-yl)-6-isopropyl-10-methoxy-2-oxo-6,7-dihydro-2H-pyrido[2,1-a]isoquinoline-3-carboxylic Acid]: the figures for the IC50 in experiment [1] and in experiment [2] were 1.99 nM and 3.2 nM, respectively.

For `COCCCOc1cc2c(cc1-c1cscn1)-c1cc(=O)c(C(=O)O)cn1C(C(C)C)C2` (stereo not shown) [Example 13, 6-isopropyl-9-(3-methoxypropoxy)-2-oxo-10-(thiazol-4-yl)-6,7-dihydro-2H-pyrido[2,1-a]isoquinoline-3-carboxylic Acid], the IC50 stood at 0.64 nM in experiment [1] and 1.48 nM in experiment [2].

On to `CCOCc1cc2c(cc1OCCCOC)CC(C(C)C)n1cc(C(=O)O)c(=O)cc1-2` (stereo not shown) [Example 7, 10-(ethoxymethyl)-6-isopropyl-9-(3-methoxypropoxy)-2-oxo-6,7-dihydro-2H-pyrido[2,1-a]isoquinoline-3-carboxylic Acid], for which the IC50 in experiment [1] came out at 8.16 nM; in experiment [2], 13.5 nM.

Turning to `COc1cc2c(cc1-c1cccs1)CC(C(C)C)n1cc(C(=O)O)c(=O)cc1-2` (stereo not shown) [Example 17, 6-isopropyl-10-methoxy-2-oxo-9-(thiophen-2-yl)-6,7-dihydro-2H-pyrido[2,1-a]isoquinoline-3-carboxylic Acid], the values for the IC50 in experiment [1] and in experiment [2] were 3.6 nM and 2.14 nM, respectively.

Take `COC(=O)c1cc2c(cc1-c1ccco1)CC(C(C)C)n1cc(C(=O)O)c(=O)cc1-2` (stereo not shown) [Example 32, 9-(furan-2-yl)-6-isopropyl-10-(methoxycarbonyl)-2-oxo-6,7-dihydro-2H-pyrido[2,1-a]isoquinoline-3-carboxylic Acid]: the concentration for half-maximal inhibition (IC50) in experiment [1] was determined as 7.57 nM; in experiment [2], 9.62 nM.

For the molecule `COCCCOc1cc2c(cc1-c1ccco1)-c1cc(=O)c(C(=O)O)cn1C(C(C)C)C2` (stereo not shown) [Example 11, 10-(furan-2-yl)-6-isopropyl-9-(3-methoxypropoxy)-2-oxo-6,7-dihydro-2H-pyrido[2,1-a]isoquinoline-3-carboxylic Acid], the IC50 in experiment [1] came out at 1.9 nM; in experiment [2], 1.6 nM.

For the molecule `COCCCOc1cc2c(cc1-c1ncc(Br)s1)-c1cc(=O)c(C(=O)O)cn1C(C(C)C)C2` (stereo not shown) [Example 24, 10-(5-bromothiazol-2-yl)-6-isopropyl-9-(3-methoxypropoxy)-2-oxo-6,7-dihydro-2H-pyrido[2,1-a]isoquinoline-3-carboxylic Acid], the half-inhibitory concentration (IC50) in experiment [1] is 8.63 nM; in experiment [2], 9.99 nM.

One may read the IC50 as the concentration that gives 50% inhibition.
